As a reminder, the IC50 is the concentration that gives 50% inhibition. The low end stands for higher potency, the high end for lower potency.

The values that follow come from patent EP1889617A1, “Triphenyl modified 5-membered heterocycles and their use as anticancer and antiflammatory agents” (Freie Universität Berlin, priority 2006, dated 2008).

Assay [1] has as its target T1, recombinant human estrogen receptor (hERα) (Homo sapiens, UniProt P03372).
T1 construct: purchased Calbiochem
T1 sequence (P03372 1-595): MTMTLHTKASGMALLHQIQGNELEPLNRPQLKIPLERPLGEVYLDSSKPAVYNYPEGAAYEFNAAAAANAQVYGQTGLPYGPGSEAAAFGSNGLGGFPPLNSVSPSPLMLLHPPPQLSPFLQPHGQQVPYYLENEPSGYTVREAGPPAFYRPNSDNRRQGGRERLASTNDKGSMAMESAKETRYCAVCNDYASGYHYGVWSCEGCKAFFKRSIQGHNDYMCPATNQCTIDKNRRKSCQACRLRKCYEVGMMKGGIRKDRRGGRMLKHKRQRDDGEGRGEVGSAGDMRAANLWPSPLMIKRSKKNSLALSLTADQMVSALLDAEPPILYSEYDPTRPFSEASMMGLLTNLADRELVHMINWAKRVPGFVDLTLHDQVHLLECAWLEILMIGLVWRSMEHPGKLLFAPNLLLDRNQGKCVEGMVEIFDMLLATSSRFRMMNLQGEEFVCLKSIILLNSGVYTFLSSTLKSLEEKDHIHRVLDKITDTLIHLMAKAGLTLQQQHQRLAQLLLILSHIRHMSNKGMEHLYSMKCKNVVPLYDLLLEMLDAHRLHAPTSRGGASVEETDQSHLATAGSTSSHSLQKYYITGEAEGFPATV
Nature of the assay: Recombinant ERα (HAP Assay): competitive binding against [3H]E2 on hydroxylapatite. As to conditions: hERα adsorbed on hydroxylapatite; test compound 10^-6 M; overnight at 4°C; percentage to a solvent treated control sample. The procedure: (§1) ER binding affinity is measured in competitive binding assays compared to estradiol. Binding affinity is expressed as a relative binding affinity (RBA) in percent compared to estradiol which is assigned an affinity of 100%. Substantial affinity for ER is indicated by an RBA of about 0,1% or more. Good affinity binding to ER is indicated by an RBA of about 1%- to about 10%. High affinity binding to ER is indicated by an RBA of about 10% or higher.
An ethanolic solution (250 fmol/µL) of recombinant human estrogen receptor (hERα) (Calbiochem) was diluted with Tris-HCl buffer pH 8.0 (1:100). This hERα preparations adsorbed on hydroxylapatite pellets (prepared in 10 mmol/L Tris HCl buffer pH 8.0) which were labeled with increasing concentrations of the test compound (10^-10 - 10^-5 M) and [^3H]E2 (0.1 %) in presence or absence of 200-fold excess of unlabeled E2 and were incubated overnight at 4°C. Bond [^3H]E2 were then successively extracted with ethanol and aliquots of 200 µL of ethanolic extracts were transferred to scintillation vials containing 3.8 mL scintillator Ecoscint H (National Diagnostic, Atlanta) for radioactivity counting. The data interpretation was carried out as shown above.

For the next assay, the target named is T2, estrogen receptor (Homo sapiens, UniProt P03372).
T2 construct: endogenous in cells; host or cells: MCF-7
T2 sequence (P03372 1-595): T1 sequence (P03372 1-595)
As to the kind of experiment: Whole Cell Assay (WCA): competitive estrogen receptor binding against [3H]17β-estradiol. The following applies: test compound 10^-6 M, 1 h incubation (37°C), percentage to a solvent treated control sample. The procedure:
as §1
MCF-7 cells were plated in 24-well dishes (4 x 10^4 cells/well) and cultured for 48 h. After the incubation the medium was replaced by test compounds diluted in serum free medium containing [^3H]17β-Estradiol ([^3H]E2). Additional wells of each test compound concentration were filled with 500-fold excess of unlabeled E2 for nonspecific binding measurements. After 1 h incubation (37°C) the medium was removed and monolayer washed three times with an ice-cold saline solution. Bond E2 was then extracted from the monolayer with 1 mL ethanol at room temperature (20 min of incubation) and aliquots of 200 µL of ethanolic extracts were transferred to scintillation vials containing 3.8 mL scintillator Ecoscint H (National Diagnostic, Atlanta) for radioactivity counting. All measurements were performed in duplicate. Specific [^3H]E2 incorporation into the cells was calculated from the difference in incorporated radioactivity after incubation in the absence or presence of an excess of unlabeled E2. The results (relative radioactivity) were expressed as a percentage to a solvent treated control sample.

The next assay deals with MDA-MB 231 cells. As to the kind of experiment: Cytotoxic effects, concentration dependent test (IC50), crystal violet staining. The assay is classed as cell-based. The following applies: Homo sapiens; estrogen receptor negative MDA-MB 231 cells; incubation of 48 h. The procedure:
(§2) The cytotoxic assay in estrogen receptor positive MCF-7 cells has been described previously by Ruenitz, P.C. et al. (1997) J. Steroid Biochem. Mol. Biol. 63, 203-209). Fiation, staining and quantitation of the cells were carried out according to Gillies (Gillies, R.J. et al. (1986) Anal. Biochem. 159, 109-113) and Kueng (Kueng, W. et al. (1989) Anal. Biochem. 182, 16-19). Moreover the test was carried out with estrogen receptor negative MD-MB 231 cells. MCF-7 cells (MDA-MB 231 cells) from an almost confluent monolayer were harvest by trypsinization and suspended to approximately 7 x 10^3 cells/mL (1 x 10^3 cells/mL). At the beginning of the experiment, the cell suspension was transferred to 96-well microplates (100 µL/well). After cultivating them for 3 days at growing conditions the medium was removed and replaced by one containing the test compounds. Control wells (16/plate) were contained 0.1% of DMSO, which was used for the preparation of the stock solutions. The initial cell density was determined by addition of glutaric dialdehyde (1 % in PBS; 100 µL/well). After incubation for 3-7 days, the medium was removed, and glutaric dialdehyde (1 % in PBS; 100 µL/well) was added for fixation. After 15 min, the solution of the aldehyde was decanted and 180 µL PBS/well added. The plates were stored at 4°C until staining. Cells were stained by treating them for 25 min with 100 µL of an aqueous solution of crystal violet (0.02%). After decanting cells were washed several times with water to remove the adherent dye. After addition of 180 µL of ethanol (70%), plates were gently shaken for 4 h. Optical density of each well was measured in a microplate autoreader at 590 nm.
(§3) MCF-7 cells (MDA-MB 231 cells) from an almost confluent monolayer were harvested by trypsinization and suspended to approximately 10 × 10^3 cells/mL (5 x 10^3 cells/mL). After cultivating them for 3 days at growing conditions the medium was removed and replaced by one containing the test compounds (control wells 8/plate). After incubation of 72 h (48 h) the medium was removed and the test was continued as descried above.

For a further assay, the system named is MCF-7 cells. Described as above. The assay is classed as cell-based. The following applies: Homo sapiens, MCF7; estrogen receptor positive MCF-7 cells; incubation of 72 h. The procedure:
as §2, §3

As for `CCCc1c(-c2ccc(Cl)cc2O)[nH]c(-c2ccc(O)cc2)c1-c1ccc(O)cc1` [Example 12, 2-(4-Chloro-2-hydroxyphenyl)-4,5-bis(4-hydroxyphenyl)-3-propyl-1H-pyrrole], the “Relative radioactivity of labeled [^3H]E2; RBA-value HAP-Assay; 10^-6 M” value in assay [1] is listed as 70.3 ± 6.1%. For the same compound, the “Relative radioactivity of labeled [^3H]E2; RBA-value MCF-7 cells (WCA); 10^-6 M” value (“Relative radioactivity … (WCA); 10^-6 M” for short) at estrogen receptor is reported as 78.1 ± 4.4%. For the same compound, the IC50 in the assay with MDA-MB 231 cells was 6.5 µM; in the assay on MCF-7 cells, 8.1 µM.
In the case of `Oc1ccc(-c2cc(-c3ccc(O)cc3Cl)[nH]c2-c2ccc(Cl)cc2O)cc1` [Example 11, 5-(2-Chloro-4-hydroxyphenyl)-2-(4-chloro-2-hydroxyphenyl)-3-(4-hydroxyphenyl)-1H-pyrrole], the IC50 with MDA-MB 231 cells was 14 µM; with MCF-7 cells, 10.5 µM.
As to `CCc1c(-c2ccc(O)cc2Cl)cc(-c2ccc(O)cc2)n1-c1ccc(O)cc1` [Example 19, 4-(2-Chloro-4-hydroxyphenyl)-5-ethyl-1,2-bis(4-hydroxyphenyl)-1H-pyrrole], the “Relative radioactivity of labeled [^3H]E2; RBA-value HAP-Assay; 10^-6 M” value in assay [1] is 30.1 ± 5.1%. At estrogen receptor, the “Relative radioactivity … (WCA); 10^-6 M” value was 41.2 ± 8.3%. The results for the IC50 in the assay on MDA-MB 231 cells and in the assay with MCF-7 cells were 18.4 µM and 17.8 µM, respectively.
For the compound `COc1ccc(-c2cc(-c3ccc(OC)cc3Cl)[nH]c2-c2ccc(OC)cc2)cc1` [Example 2, 5-(2-Chloro-4-methoxyphenyl)-2,3-bis(4-methoxyphenyl)-1H-pyrrole], the values for the IC50 in the assay with MDA-MB 231 cells and in the assay on MCF-7 cells were 10.3 µM and 9.5 µM, respectively.
On the same counts, the results for `CC(C)Cc1c(-c2ccc(O)cc2Cl)cc(-c2ccc(O)cc2)n1-c1ccc(O)cc1` [Example 21, 4-(2-Chloro-4-hydroxyphenyl)-5-isobutyl-1,2-bis(4-hydroxyphenyl)-1H-pyrrole] are 16.1 µM and 15.2 µM.
The corresponding values for `CCCc1c(-c2ccc(O)cc2Cl)cc(-c2ccc(O)cc2)n1-c1ccc(O)cc1` [Example 20, 4-(2-Chloro-4-hydroxyphenyl)-1,2-bis(4-hydroxyphenyl)-5-propyl-1H-pyrrole] are 16.2 µM and 19.5 µM.
The corresponding values for `Oc1ccc(-c2cc(-c3ccc(O)cc3)c(-c3ccc(Cl)cc3O)[nH]2)cc1` [Example 10, 2-(4-Chloro-2-hydroxyphenyl)-3,5-bis(4-hydroxyphenyl)-1H-pyrrole] are 18.8 µM and 9.2 µM.
`Oc1ccc(-c2cc(-c3ccc(O)cc3)c(-c3ccc(O)cc3Cl)[nH]2)cc1` [Example 7, 2-(2-Chloro-4-hydroxyphenyl)-3,5-bis(4-hydroxyphenyl)-1H-pyrrole]: the “Relative radioactivity of labeled [^3H]E2; RBA-value HAP-Assay; 10^-6 M” value in assay [1] is on record as 26.4 ± 8.3%. For the same compound, the “Relative radioactivity … (WCA); 10^-6 M” value at estrogen receptor was determined as 35.3 ± 4.9%. Also, the IC50 is 13.5 µM in the assay with MDA-MB 231 cells and 16.4 µM with MCF-7 cells.
For `COc1ccc(-c2cc(-c3ccc(OC)cc3)c(-c3ccc(OC)cc3Cl)[nH]2)cc1` [Example 1, 2-(2-Chloro-4-methoxyphenyl)-3,5-bis(4-methoxyphenyl)-1H-pyrrole], the IC50 in the assay with MDA-MB 231 cells was determined as 27.4 µM; in the assay with MCF-7 cells it was 17.7 µM.
Turning to `COc1ccc(-c2cc(-c3ccc(OC)cc3Cl)c(C)n2-c2ccc(OC)cc2)cc1` [Example 13, 4-(2-Chloro-4-methoxyphenyl)-1,2-bis(4-methoxyphenyl)-5-methyl-1H-pyrrole], the IC50 in the assay on MDA-MB 231 cells was found to be 20.3 µM; in the assay with MCF-7 cells it was 23.6 µM.
On the same counts, the results for `COc1ccc(-c2cc(-c3ccc(OC)cc3Cl)c(CC(C)C)n2-c2ccc(OC)cc2)cc1` [Example 16, 4-(2-Chloro-4-methoxyphenyl)-5-isobutyl-1,2-bis(4-methoxyphenyl)-1H-pyrrole] are 15.2 µM and 18 µM.
For the compound `Oc1ccc(-c2cc(-c3ccc(O)cc3Cl)[nH]c2-c2ccc(O)cc2Cl)cc1` [Example 9, 2,5-Bis(2-chloro-4-hydroxyphenyl)-3-(4-hydroxyphenyl)-1H-pyrrole], the “Relative radioactivity of labeled [^3H]E2; RBA-value HAP-Assay; 10^-6 M” value in assay [1] was 19.1 ± 1.5%. Besides, the “Relative radioactivity … (WCA); 10^-6 M” value on estrogen receptor worked out at 13.1 ± 3.2%. For the same compound, the IC50 with MDA-MB 231 cells turned out to be 13.4 µM; in the assay with MCF-7 cells it was 7.6 µM.
For the compound `CCCc1c(-c2ccc(OC)cc2F)cc(-c2ccc(OC)cc2)n1-c1ccc(OC)cc1` [Example 17, 4-(2-Fluoro-4-methoxyphenyl)-1,2-bis(4-methoxyphenyl)-5-propyl-1H-pyrrole], the IC50 with MDA-MB 231 cells was determined as 18.4 µM; in the assay with MCF-7 cells, 17.8 µM.
Consider `Cc1c(-c2ccc(O)cc2Cl)cc(-c2ccc(O)cc2)n1-c1ccc(O)cc1` [Example 18, 4-(2-Chloro-4-hydroxyphenyl)-1,2-bis(4-hydroxyphenyl)-5-methyl-1H-pyrrole], for which the IC50 is 17.4 µM in the assay on MDA-MB 231 cells and 23.4 µM in the assay on MCF-7 cells.
